According to patent US10918731B2, “HSP90 inhibitory peptide conjugate and application thereof in treating tumor” (INSTITUTE OF BASIC MEDICAL SCIENCES, CHINESE ACADEMY OF …, priority 2015, dated 2021):
Ends that are not written are not given here. Peptide text beside a SMILES is read from it.

How the values were obtained:
melanoma A375 cells = assay: CCK-8 cytotoxicity, melanoma A375 cells; assay type: cell-based; settings: human, 48 h
Protocol: (§1) Lung adenocarcinoma A549, breast cancer MCF-7S and melanoma A375 cells were diluted respectively to 3×10^4 cells/ml and pipetted to 96-well plate with 100 μl in each well. Twenty-four hours later, 5, 20, 80 or 320 nM DTX-P7, Paclitaxel-heptapeptide conjugate (PTX-P7), Doxorubicin-NH2-heptapeptide conjugate (DOX-P7) and Doxorubicin-OH-heptapeptide conjugate (DOX-OH-P7) were added to the wells and incubated for 48 h. Then 10 μl CCK-8 was added and measured 1.5 h later at 450 nm to calculate the viability and median inhibitory concentration IC50.

[1] = test system: breast cancer MCF-7S cells; assay: CCK-8 cytotoxicity, breast cancer MCF-7S cells; assay type: cell-based; settings: human, 48 h
Protocol: as §1

[2] = test system: Lung adenocarcinoma A549 cells; assay: CCK-8 cytotoxicity, lung adenocarcinoma A549 cells; assay type: cell-based; settings: human, 48 h
Protocol: as §1

A549 cell xenograft = assay: Human non-small cell lung cancer A549 xenograft nude mice model, tumor growth; assay type: in vivo, BALB/c nu/nu female nude mice; settings: 10 mg/kg based on DTX, intraperitoneal, once a week, four injections
Protocol: A549 cell, a non-small cell lung cancer cell line, growing in logarithmic phase were collected and gently pipetted with 1 ml F-12K media containing […] to prepare the single cell suspension, which was consequently counted with appropriate dilution. The cell suspension was mixed with Matrigel (1:3) under ice bath. The concentration of the cell suspension was adjusted to 8×10^6 cells/ml and stored at 0° C. before transplantation.
Thirty BALB/c nu/nu female nude mice (16 g) were acclimated to the environment for 1 week before the formal experiment. […]
The mice were frequently observed and tumor volume was measured with a Vernier caliper, the volume was calculated by the equation (long diameter×short diameter^2) (½), when tumor reaching a size of 100 mm^3, mice were divided into 4 groups: (1) Saline (control), (2) DTX, (3) TN-DTX and (4) DTX-P7.
Next day after animal grouping, agents were administrated via intraperitoneal injection once a week for a total of four injections. The first administrated day was recorded as Day 0 and the other administrated days were respectively recorded as Day 7, Day 14, Day 21. […]
The mice were measured and weighted every two times a week. Tumor dimensions were measured using calipers. […]

tumor cell [3] = assay: Autophagy: autophagosome and expression of autophagy related proteins (Beclin 1, LC3); assay type: cell-based; settings: 6 h; for expression of autophagic Beclin1 and LC3, single agent: agent alone
Protocol: The cells were seeded and cultured. Targeting peptide was diluted with culture medium. Appropriate concentration of DTX was also prepared for the seeded cells. Equivalent culture medium was added as negative control group; 1×10^−9 M targeting peptide solution was added as Peptide group; 10^−9 M DTX was added as DTX group; 10^−9 M targeting peptide and […] were added as combination group (DTX+P). The cells were incubated at 37° C., 5% CO2 for 6 h to analyze the autophagosome. Protein was extracted to measured expression of autophagy related proteins.

HSP90 = assay: Western blotting of HSP90 expression in A549 cells; assay type: cell-based, human; settings: 48 h
Protocol: • (1) lung adenocarcinoma A549 cells were trypsinized and then centrifuged at 800×g for 5 min. The precipitate was re-suspended with PBS and adjusted to 1×10^6 cells/ml. • (2) the cells were seeded into 6-well plate and 2 ml culture medium was added. Then the cells were incubated at 37° C., 5% CO2 overnight. • (3) The peptide was diluted with medium and 300 μl solution was added to each well with a final concentration of 1×10^−4 M. Equal volume of medium was added to the negative well. Triple wells were set for each group and experiment was repeated three times. The plate was incubated at 37° C., 5% CO2 for 48 h. Protein was extracted and subjected to Western blotting analysis.

tumor cell [4] = assay: Apoptosis by Annexin V method and Western blotting of apoptosis related proteins; assay type: cell-based
Protocol: The cells were seeded and cultured. Targeting peptide was diluted with culture medium. Appropriate concentration of DTX was also prepared for the seeded cells. Equivalent culture medium was added as negative control group, 1×10^−9 M targeting peptide solution added as Peptide group, 10^−9 M DTX added as DTX group, 10^−9 M targeting peptide and […] added as combination group (DTX+P). The cells were incubated at 37° C., 5% CO2 for 6 h to analyze the apoptosis by Annexin V method. The protein was extracted to measure the expression of apoptosis related proteins.

Compound: COc1ccc2c(c1)C(=O)c1c(O)c3c(c(O)c1C2=O)C[C@@](O)(C(=O)COC(=O)CCC(=O)N[C@@H](CC(C)C)C(=O)N1CCC[C@H]1C(=O)N[C@@H](CC(C)C)C(=O)N[C@H](C(=O)N1CCC[C@H]1C(=O)N[C@@H](CC(C)C)C(=O)N1CCC[C@H]1C(=O)O)[C@@H](C)O)C[C@@H]3OC1CC(N)C(O)C(C)O1 (stereo partly drawn) [DOX-OH-P7] (HELM PEPTIDE1{[COc1ccc2c(c1)C(=O)c1c(O)c3c(c(O)c1C2=O)C[C@@](O)(C(=O)COC(=O)CCC(=O)[*:2])C[C@@H]3OC1CC(N)C(O)C(C)O1].L.P.L.T.P.L.P}$$$$V2.0)
- IC50 (melanoma A375 cells): 28.4 nM
- IC50 [1]: 18.1 nM
- IC50 [2]: 6.2 nM

Compound: CC(=O)O[C@@]12CO[C@@H]1C[C@H](O)[C@@]1(C)C(=O)[C@H](O)C3=C(C)[C@@H](OC(=O)[C@H](O)[C@@H](NC(=O)OC(C)(C)C)c4ccccc4)C[C@@](O)([C@@H](OC(=O)c4ccccc4)[C@H]21)C3(C)C [DTX, Docetaxel, reference compound]
- effect on tumor growth (A549 cell xenograft): obvious inhibitory effects on the tumor growth
- expression of autophagic Beclin1 and LC3, single agent (tumor cell [3]): enhanced the expression the Beclin 1 and conversion of LC3-I to LC3-II

Compound: LPLTPLP (SEQ ID No: 1) [targeting peptide]
- expression of HSP90 (HSP90): effectively down regulated the expression of HSP90 in a dose-dependent manner
- apoptosis (Annexin V), peptide alone (tumor cell [4]; 6 h, 1×10^−9 M targeting peptide): induced apoptosis
- apoptosis (Annexin V), peptide combined with DTX (tumor cell [4]; 6 h, combination group (DTX+P)): further promoted apoptosis when combined with DTX
- caspase-3 cleavage, peptide alone (tumor cell [4]; Western blotting): induce caspase-3 cleavage
- caspase-3 cleavage, peptide combined with DTX (tumor cell [4]; Western blotting, compared with DTX alone): the cleavage was further enhanced when combined with DTX compared with DTX alone
- expression of autophagic Beclin1 and LC3, single agent (tumor cell [3]): did not affect the expression of these proteins
- Beclin1 expression and conversion of LC3-I to LC3-II, DTX and targeting peptide simultaneously added (tumor cell [3]; combination group (DTX+P), compared with DTX treatment only): significantly inhibited the autophagy induced by DTX
